Several values for one entry are separate records, joined by “and”; a condition that tells them apart may be missing. Identical values can stand only once. After the bases stand the sugars from the 5' end (letter, count) and the backbone: PS all phosphorothioate, else s phosphorothioate and o phosphodiester by linkage. Methylation of C is not given here. e = 2'-O-(2-methoxyethyl) (MOE); l = locked nucleic acid (LNA); k = constrained ethyl (cEt); d = 2'-deoxy (DNA)
Key:
APOL1 = conditions: ASO
SNHG14 = conditions: ASO
[1] = Mouse Primary Neuronal Cell, 0.005 µM

TTTGTAAGTGCAACCA (sugars k3 d4 k3 e1 d5, PS)
target mRNA inhibition (APOL1; A431, 2 µM): 56%

GTTCTAACTCTTGGGC (sugars kekddddeekkddddd, PS)
target mRNA inhibition (APOL1; A431, 2 µM): 86%

ACTGTTCTAACTCTTG (sugars k4 d9 k3, PS)
target mRNA inhibition (APOL1; A431, 0.0625 µM): 85% | target mRNA inhibition (APOL1; A431, 0.25 µM): 92% | target mRNA inhibition (APOL1; A431, 1 µM): 95%

TGTTATATTTGATCCT (sugars kkddddkekekkdddd, PS)
target mRNA inhibition (APOL1; A431, 2 µM): 46%

GTTCTAACTCTTGGGC (sugars kkkddddkdkdkdddd, PS)
target mRNA inhibition (APOL1; A431, 2 µM): 73%

CTGTTCTAACTCTTGG (sugars kkddddkekekddddd, PS)
target mRNA inhibition (APOL1; A431, 2 µM): 88%

TGTTTGCATTTGGGTC (sugars k4 d9 k3, PS)
target mRNA inhibition (APOL1; A431, 0.0625 µM): 90% and 83% | target mRNA inhibition (APOL1; A431, 0.25 µM): 98% and 94% | target mRNA inhibition (APOL1; A431, 1 µM): 99% and 96%

GTATTTCTTGATGTGG (sugars kkkddddkekeddddd, PS)
target mRNA inhibition (APOL1; A431, 0.0156 µM): 50% | target mRNA inhibition (APOL1; A431, 0.0625 µM): 80% | target mRNA inhibition (APOL1; A431, 0.25 µM): 96% | target mRNA inhibition (APOL1; A431, 1 µM): 97% | target mRNA inhibition (APOL1; A431, 2 µM): 98%

ATTCTATTAGAGGGCT (sugars kkdddddkekeddddd, PS)
target mRNA inhibition (APOL1; A431, 2 µM): 78%

CGTCAATATATTCTTT (sugars kdddddkekekddddd, PS)
target mRNA inhibition (APOL1; A431, 2 µM): 90%

GTATTTCTTGATGTGG (sugars kkddddkekekddddd, PS)
target mRNA inhibition (APOL1; A431, 2 µM): 75%

GTATTGCCAGCTAAGG (sugars kkddddkekekkdddd, PS)
target mRNA inhibition (APOL1; A431, 2 µM): 74%

CGTTCCAGGCCTCATT (sugars k4 d9 k3, PS)
target mRNA inhibition (APOL1; A431, 0.0625 µM): 40% | target mRNA inhibition (APOL1; A431, 0.25 µM): 60% | target mRNA inhibition (APOL1; A431, 1 µM): 82%

CTTTAAACTCAGGTGA (sugars kkddddkekekkdddd, PS)
target mRNA inhibition (APOL1; A431, 2 µM): 70%

GAGTATTGTTTTTGTG (sugars kkddddkekekddddd, PS)
target mRNA inhibition (APOL1; A431, 2 µM): 90%

ATCAGATGGGTACTTC (sugars kddddkekekeddddd, PS)
target mRNA inhibition (APOL1; A431, 2 µM): 43%

GCTTTAAACTCAGGTG (sugars k4 d9 k3, PS)
target mRNA inhibition (APOL1; A431, 0.04 µM): 11% | target mRNA inhibition (APOL1; A431, 0.25 µM): 76% and 79% | target mRNA inhibition (APOL1; A431, 1 µM): 91% and 89% and 82%

TACATTTGGAGATCTG (sugars k4 d9 k3, PS)
target mRNA inhibition (APOL1; A431, 0.0625 µM): 61% | target mRNA inhibition (APOL1; A431, 0.25 µM): 80% | target mRNA inhibition (APOL1; A431, 1 µM): 90%

TGAACGCAATGCTGAC (sugars k4 d9 k3, PS)
target mRNA inhibition (APOL1; A431, 0.0625 µM): 32% | target mRNA inhibition (APOL1; A431, 0.25 µM): 74% | target mRNA inhibition (APOL1; A431, 1 µM): 90%

GATTTTCCAACAAGGT (sugars k4 d9 k3, PS)
target mRNA inhibition (APOL1; A431, 0.0625 µM): 54% | target mRNA inhibition (APOL1; A431, 0.25 µM): 80% | target mRNA inhibition (APOL1; A431, 1 µM): 92%

CTAATTTTCTGACTGT (sugars kkddddekekeddddd, PS)
target mRNA inhibition (APOL1; A431, 2 µM): 90%

TTTTAGAAAGGACACG (sugars k4 d9 k3, PS)
target mRNA inhibition (APOL1; A431, 0.0625 µM): 42% | target mRNA inhibition (APOL1; A431, 0.25 µM): 67% | target mRNA inhibition (APOL1; A431, 1 µM): 85%

GTTATGAAATTATTGG (sugars kkddddkdkdkddddd, PS)
target mRNA inhibition (APOL1; A431, 2 µM): 71%

CAGATGGGTACTTCTG (sugars kdddddkekekddddd, PS)
target mRNA inhibition (APOL1; A431, 2 µM): 44%

TTACATGCACGATCTC (sugars k3 d10 k3, PS)
target mRNA inhibition (APOL1; A431, 0.0625 µM): 18% | target mRNA inhibition (APOL1; A431, 0.25 µM): 56% | target mRNA inhibition (APOL1; A431, 1 µM): 78%

AATAATGGTAGGTCTA (sugars k4 d9 k3, PS)
target mRNA inhibition (APOL1; A431, 0.0625 µM): 41% | target mRNA inhibition (APOL1; A431, 0.25 µM): 71% | target mRNA inhibition (APOL1; A431, 1 µM): 84%

GAATTATGGAATTGCA (sugars kkkddddkekekdddd, PS)
target mRNA inhibition (APOL1; A431, 2 µM): 61%

TATTTCTTGATGTGGT (sugars k2 d4 e4 k2 d4, PS)
target mRNA inhibition (APOL1; A431, 2 µM): 96%

GGAATTATGGAATTGC (sugars kekddddeekkddddd, PS)
target mRNA inhibition (APOL1; A431, 0.0156 µM): 23% | target mRNA inhibition (APOL1; A431, 0.0625 µM): 63% | target mRNA inhibition (APOL1; A431, 0.25 µM): 90% | target mRNA inhibition (APOL1; A431, 1 µM): 97% | target mRNA inhibition (APOL1; A431, 2 µM): 98%

TCTCATGGTACAGGAG (sugars kdddddkekekddddd, PS)
target mRNA inhibition (APOL1; A431, 2 µM): 61%

TCTGTTAGATACAAAC (sugars k4 d9 k3, PS)
target mRNA inhibition (APOL1; A431, 0.0625 µM): 34% | target mRNA inhibition (APOL1; A431, 0.25 µM): 63% | target mRNA inhibition (APOL1; A431, 1 µM): 78%

TCAGTCAGCAGGAGTA (sugars k4 d9 k3, PS)
target mRNA inhibition (APOL1; A431, 0.0625 µM): 55% | target mRNA inhibition (APOL1; A431, 0.25 µM): 69% | target mRNA inhibition (APOL1; A431, 1 µM): 70%

CAGTTTTGTAAGTGCA (sugars kkkddddkekekdddd, PS)
target mRNA inhibition (APOL1; A431, 2 µM): 87%

AGTATTGTTTTTGTGG (sugars k2 d4 e3 k2 d5, PS)
target mRNA inhibition (APOL1; A431, 2 µM): 90%

TTTATACCAGTGTCTT (sugars k3 d4 k3 e1 d5, PS)
target mRNA inhibition (APOL1; A431, 2 µM): 80%

AAGCTTTAAACTCAGG (sugars k3 d4 k3 e1 d5, PS)
target mRNA inhibition (APOL1; A431, 2 µM): 72%

TTCTCATGGTACAGGA (sugars kkdddddkekeddddd, PS)
target mRNA inhibition (APOL1; A431, 2 µM): 78%

ACACATCATTGGGTTA (sugars kkkddddkdkdkdddd, PS)
target mRNA inhibition (APOL1; A431, 2 µM): 48%

AAAATCTCAACTACCATTTT (sugars l3 d11 l2 d1 l3, PS)
target mRNA inhibition (SNHG14; Human Neuronal Cell, 7.5 µM): 12%

ACCTGTAATACTTCTT (sugars l4 d10 l2, PS)
target mRNA inhibition (SNHG14; Human Neuronal Cell, 0.2 µM): 48% | target mRNA inhibition (SNHG14; Human Neuronal Cell, 1 µM): 46%

ACCTACATCTCATACT (sugars l2 d12 l2, PS)
target mRNA inhibition (SNHG14; Human Neuronal Cell, 0.2 µM): -16% | target mRNA inhibition (SNHG14; Human Neuronal Cell, 1 µM): 8% | target mRNA inhibition (SNHG14; Human Neuronal Cell, 5 µM): 0% | target mRNA inhibition (SNHG14; [1]): 85.7%

TGTATATAACTATTCC (sugars l4 d10 l2, PS)
target mRNA inhibition (SNHG14; Human Neuronal Cell, 0.2 µM): 21% | target mRNA inhibition (SNHG14; Human Neuronal Cell, 1 µM): 20%

CCATTATTTCTTAAATA (sugars l4 d11 l2, PS)
target mRNA inhibition (SNHG14; Human Neuronal Cell, 0.2 µM): -8% | target mRNA inhibition (SNHG14; Human Neuronal Cell, 1 µM): 8%

GAAAATCTCAACTACCATT (sugars l3 d1 l1 d10 l4, PS)
target mRNA inhibition (SNHG14; Human Neuronal Cell, 7.5 µM): 57%

ATATAAGCTTACCTCA (sugars l4 d10 l2, PS)
target mRNA inhibition (SNHG14; Human Neuronal Cell, 0.2 µM): 56% | target mRNA inhibition (SNHG14; Human Neuronal Cell, 1 µM): 68%

TTCTACTATACTTTCCTCT (sugars ldlddddddddddddldll, PS)
target mRNA inhibition (SNHG14; Human Neuronal Cell, 7.5 µM): 63%

TTTATTTCCATTTATTTTCA (sugars lldldlddddddddldldll, PS)
target mRNA inhibition (SNHG14; Human Neuronal Cell, 7.5 µM): 63%

CTCATCCCTCCAAGAAA (sugars l4 d11 l2, PS)
target mRNA inhibition (SNHG14; Human Neuronal Cell, 0.2 µM): -3% | target mRNA inhibition (SNHG14; Human Neuronal Cell, 1 µM): -15% | target mRNA inhibition (SNHG14; Human Neuronal Cell, 5 µM): -9% | target mRNA inhibition (SNHG14; [1]): 90.9%

CATTCTATCTGCCAAA (sugars l2 d10 l4, PS)
target mRNA inhibition (SNHG14; Human Neuronal Cell, 0.2 µM): 55% | target mRNA inhibition (SNHG14; Human Neuronal Cell, 1 µM): 64%

GTTTCCATCTACTATTAAT (sugars l1 d2 l2 d12 l2, PS)
target mRNA inhibition (SNHG14; Human Neuronal Cell, 7.5 µM): 62%

ATCATTTCATATTACTA (sugars l3 d11 l3, PS)
target mRNA inhibition (SNHG14; Human Neuronal Cell, 0.2 µM): 43% | target mRNA inhibition (SNHG14; Human Neuronal Cell, 1 µM): 56%

TTTATTTCCATTTATTTTCA (sugars lddddldddddddldlddll, PS)
target mRNA inhibition (SNHG14; Human Neuronal Cell, 7.5 µM): 46%

ATTTACACTTAATTATACTT (sugars llddlllddddddlddllll, PS)
target mRNA inhibition (SNHG14; Human Neuronal Cell, 7.5 µM): 38%

ACATGTCCCTTTATATT (sugars l2 d13 l2, PS)
target mRNA inhibition (SNHG14; Human Neuronal Cell, 0.2 µM): -12% | target mRNA inhibition (SNHG14; Human Neuronal Cell, 1 µM): 8% | target mRNA inhibition (SNHG14; Human Neuronal Cell, 5 µM): 21% | target mRNA inhibition (SNHG14; [1]): 85.2%

TTTCTTACTATCTTCA (sugars l4 d10 l2, PS)
target mRNA inhibition (SNHG14; Human Neuronal Cell, 0.2 µM): 53% | target mRNA inhibition (SNHG14; Human Neuronal Cell, 1 µM): 61%

TATTGATTCAATTCCCT (sugars l1 d2 l1 d10 l3, PS)
target mRNA inhibition (SNHG14; Human Neuronal Cell, 7.5 µM): 72%

TGTTTCCATCTACTATTA (sugars l1 d4 l1 d8 l4, PS)
target mRNA inhibition (SNHG14; Human Neuronal Cell, 7.5 µM): 67%

TCTTCAGCTTTCTAAAT (sugars l4 d11 l2, PS)
target mRNA inhibition (SNHG14; Human Neuronal Cell, 0.2 µM): 5% | target mRNA inhibition (SNHG14; Human Neuronal Cell, 1 µM): 24%

CAACATTATTAACCACCTT (sugars l3 d1 l1 d11 l3, PS)
target mRNA inhibition (SNHG14; Human Neuronal Cell, 7.5 µM): 61%
